Experimental data from US12497406B2, “Microbiocidal derivatives” (SYNGENTA CROP PROTECTION AG, priority 2019, dated 2025).

Key:
[1] = tested on: Puccinia recondita f. sp. tritici; test: Puccinia recondita f. sp. tritici / wheat / leaf disc preventative (brown rust); format: in vivo; details: foliar, wheat leaf segments cv. Kanzler, inoculated 1 day after application, compared to untreated control
Procedure: Example B8. Puccinia recondita f. Sp. tritici/Wheat/Leaf Disc Preventative (Brown Rust) Wheat leaf segments cv. Kanzler are placed on agar in multiwell plates (24-well format) and sprayed with the formulated test compound diluted in water. The leaf disks are inoculated with a spore suspension of the fungus 1 day after application. The inoculated leaf segments are incubated at 19° C. and 75% rh under a light regime of 12 h light/12 h darkness in a climate cabinet and the activity of a compound is assessed as percent disease control compared to untreated when an appropriate level of disease damage appears in untreated check leaf segments (7-9 days after application). […] […]-25, and P-26.

[2] = tested on: Alternaria solani; test: Alternaria solani / tomato / leaf disc (early blight); format: in vivo; details: foliar, tomato leaf disks cv. Baby, inoculated 2 days after application, compared to untreated control
Procedure: Example B1. Alternaria solani/Tomato/Leaf Disc (Early Blight) Tomato leaf disks cv. Baby are placed on agar in multiwell plates (24-well format) and sprayed with the formulated test compound diluted in water. The leaf disks are inoculated with a spore suspension of the fungus 2 days after application. The inoculated leaf disks are incubated at 23° C./21° C. […] […]-24, and P-25.

[3] = tested on: Glomerella lagenarium (Colletotrichum lagenarium); test: Glomerella lagenarium (Colletotrichum lagenarium) / liquid culture (anthracnose); format: cell-based; details: Colletotrichum orbiculare, liquid culture (PDB), growth inhibition photometrically 3-4 days after application, compared to untreated control
Procedure: Example B3. Glomerella lagenarium (Colletotrichum lagenarium)/Liquid Culture (Anthracnose) Conidia of the fungus from cryogenic storage are directly mixed into nutrient broth (PDB potato dextrose broth). After placing a (DMSO) solution of test compound into a microtiter plate (96-well format), the nutrient broth containing the fungal spores is added. The test plates are incubated at 24° C. and the inhibition of growth is measured photometrically 3-4 days after application. […] […]-25, and P-26.

[4] = tested on: Mycosphaerella arachidis (Cercospora arachidicola); test: Mycosphaerella arachidis (Cercospora arachidicola) / liquid culture (early leaf spot); format: cell-based; details: liquid culture (PDB), growth inhibition photometrically 4-5 days after application, compared to untreated control
Procedure: Example B7. Mycosphaerella arachidis (Cercospora arachidicola)/Liquid Culture (Early Leaf Spot) Conidia of the fungus from cryogenic storage are directly mixed into nutrient broth (PDB potato dextrose broth). After placing a (DMSO) solution of test compound into a microtiter plate (96-well format), the nutrient broth containing the fungal spores is added. The test plates are incubated at 24° C. and the inhibition of growth is determined photometrically 4-5 days after application. […] […]-22, and P-25.

[5] = tested on: Mycosphaerella graminicola (Septoria tritici); test: Mycosphaerella graminicola (Septoria tritici) / liquid culture (Septoria blotch); format: cell-based; details: Zymoseptoria tritici, liquid culture (PDB), growth inhibition photometrically 4-5 days after application, compared to untreated control
Procedure: (§1) Example B11. Mycosphaerella graminicola (Septoria tritici)/Liquid Culture (Septoria Blotch) Conidia of the fungus from cryogenic storage are directly mixed into nutrient broth (PDB potato dextrose broth). After placing a (DMSO) solution of test compound into a microtiter plate (96-well format), the nutrient broth containing the fungal spores is added. The test plates are incubated at 24° C. and the inhibition of growth is determined photometrically 4-5 days after application.

[6] = tested on: Pyrenophora teres; test: Pyrenophora teres / barley / leaf disc preventative (net blotch); format: in vivo; details: foliar, barley leaf segments cv. Hasso, inoculated 2 days after application, compared to untreated control
Procedure: Example B10. Pyrenophora teres/Barley/Leaf Disc Preventative (Net Blotch) Barley leaf segments cv. Hasso are placed on agar in a multiwell plate (24-well format) and sprayed with the formulated test compound diluted in water. The leaf segments are inoculated with a spore suspension of the fungus 2 days after application. The inoculated leaf segments are incubated at 20° C. and 65% rh under a light regime of 12 h light/12 h darkness in a climate cabinet and the activity of a compound is assessed as disease control compared to untreated when an appropriate level of disease damage appears in untreated check leaf segments (5-7 days after application). […] […]-25, and P-26.

[7] = tested on: Monographella nivalis (Microdochium nivale); test: Monographella nivalis (Microdochium nivale) / liquid culture (foot rot cereals); format: cell-based; details: liquid culture (PDB), growth inhibition photometrically 4-5 days after application, compared to untreated control
Procedure: as §1, with “B6. Monographella nivalis (Microdochium nivale)/Liquid” for “B11. Mycosphaerella graminicola (Septoria tritici)/Liquid”, “(Foot Rot Cereals)” for “(Septoria Blotch)”, “application. […] […]-25, and P-26.” for “application.”

[8] = tested on: Magnaporthe grisea (Pyricularia oryzae); test: whole plant or invertebrate; format: in vivo; details: foliar, read-out: control of Magnaporthe grisea
[9] = tested on: Botryotinia fuckeliana (Botrytis cinerea); test: Botryotinia fuckeliana (Botrytis cinerea) / liquid culture (gray mould); format: cell-based; details: 20 ppm; liquid culture (Vogels broth), growth inhibition photometrically 3-4 days after application; compared to untreated control
Procedure: as §1, with “B2. Botryotinia fuckeliana (Botrytis cinerea)/Liquid” for “B11. Mycosphaerella graminicola (Septoria tritici)/Liquid”, “(Gray Mould)” for “(Septoria Blotch)”, “(Vogels” for “(PDB potato dextrose”, “3-4” for “4-5”, “application. […] P-22.” for “application.”

Row | Structure (SMILES) | pest or weed control at 200 ppm [1] [%] | pest or weed control at 200 ppm [2] [%] | inhibition of growth at 20 ppm [3] [%] | inhibition of growth at 20 ppm [4] [%] | inhibition of growth at 20 ppm [5] [%] | pest or weed control at 200 ppm [6] [%] | inhibition of growth at 20 ppm [7] [%] | pest or weed control at 200 ppm [8] [%] | control of Botryotinia fuckeliana [9]
1 | CC1(C)CCC1NC(=O)c1nc(Nc2cccc(F)c2)cc2c1OCO2 (centres unmarked) [Compound P-8, N-(2,2-dimethylcyclobutyl)-6-(3-fluoroanilino)-[1,3]dioxolo[4,5-c]pyridine-4-carboxamide] | ≥ 80 | ≥ 80 | ≥ 80 | ≥ 80 | ≥ 80 | ≥ 80 | ≥ 80 | – | –
2 | CC(C)(C)NC(=O)c1nc(Nc2cc(F)cc(F)c2)cc2c1OCO2 [Compound P-21, N-tert-butyl-6-(3,5-difluoroanilino)-[1,3]dioxolo[4,5-c]pyridine-4-carboxamide] | ≥ 80 | ≥ 80 | ≥ 80 | ≥ 80 | ≥ 80 | ≥ 80 | ≥ 80 | ≥ 80 | –
3 | CC1(NC(=O)c2nc(Nc3cc(F)cc(F)c3)cc3c2OCO3)CCC1 [Compound P-22, 6-(3,5-difluoroanilino)-N-(1-methylcyclobutyl)-[1,3]dioxolo[4,5-c]pyridine-4-carboxamide] | ≥ 80 | ≥ 80 | ≥ 80 | ≥ 80 | ≥ 80 | ≥ 80 | ≥ 80 | ≥ 80 | at least 80%
4 | CC1(NC(=O)c2nc(Nc3cc(F)cc(F)c3)cc3c2OCO3)CCCC1 [Compound P-25, 6-(3,5-difluoroanilino)-N-(1-methylcyclopentyl)-[1,3]dioxolo[4,5-c]pyridine-4-carboxamide] | ≥ 80 | ≥ 80 | ≥ 80 | ≥ 80 | ≥ 80 | ≥ 80 | ≥ 80 | ≥ 80 | –
